# Test results taken from patent US20120107323A1, “KINASE PROTEIN BINDING INHIBITORS” (University of Florida, priority 2009, published 2012).
# Experiments:
# [1] = tested on: TE7 esophageal cancer cells; assay: Cell viability (MTT), TE7; type: cell-based; conditions: TE7, 72 hours; read-out: IC50 of INT2-31, cell viability
# Method: (§1) Cell viability (MTT) and CFSE Proliferation assay: Cells were plated in 96-well plates and let adhere overnight. After cell treatment, cell viability was measured by 3-(4,5-dimethylthiazol-2-yl)-2,5-diphenyl tetrazolium bromide (MTT) assay (CellTiter 96® Aqueous, Promega, Madison, Wis.).
# (§2) Cell viability and detachment assays: After cells were treated with siRNA transfection, cell viability was measured by 3-(4,5-dimethylthiazol2-yl)-2,5-diphenyl tetrazolium bromide (MTT) assay (CellTiter 96® AQueous, Promega, Madison, Wis.). Briefly, 20 μl of the tetrazolium compound was added to each well. The cells were then incubated at 37° C. for 1 h. The plate was read at 490 nm with a plate reader to determine the viability. In detachment assays, detached and attached cells were harvested separately and counted in a hemocytometer. The percentage of detachment was calculated by dividing the number of detached cells by the total number of cells. Apoptosis assays: After treatment, attached and detached cells were collected, counted and prepared for terminal uridine deoxynucleotidyl transferase (TUNEL) assay by utilizing an APO-BRDU kit (BD Pharmingen, San Diego, Calif.) according to the manufacturer's instructions. Stained cells were analyzed with a fluorescence-activated cell sorting-Calibur flow cytometer (BD Biosciences). […] Apoptotic cells were also analyzed by Hoechst staining. […]
# [2] = tested on: AsPC1 pancreatic cancer cells; assay: Cell viability (MTT), AsPC1; type: cell-based; conditions: Homo sapiens; AsPC1, 72 hours; read-out: IC50 of INT2-31, cell viability
# Method: as §1, §2
# [3] = tested on: BxPC3 pancreatic cancer cells; assay: Cell viability (MTT), BxPC3; type: cell-based; conditions: Homo sapiens, BXPC-3; BxPC3, 72 hours; read-out: IC50 of INT2-31, cell viability
# Method: as §1, §2
# [4] = tested on: MCF10A cells; assay: Cell viability (MTT), MCF10A; type: cell-based; conditions: Homo sapiens, MCF-10A, 72 hours, read-out: IC50 of INT2-31, cell viability
# Method: as §1, §2
# [5] = tested on: MCF7 breast cancer cells; assay: Cell viability (MTT), MCF7; type: cell-based; conditions: Homo sapiens; MCF7, 72 hours; read-out: IC50 of INT2-31, cell viability
# Method: as §1, §2
# [6] = target: IGF-1R (Homo sapiens, UniProt P08069); assay: Kinase profiler screening, IGF-1R; type: biochemical; conditions: 1 μM compound, 10 μM ATP
# Method: (§3) Kinase Profiler Screening: Kinase specificity screening was performed with Invitrogen's SelectScreen® Kinase Profiling Services http://www.invitrogen.com/site/us/en/home/Products-and-Services/Services/Discoverv-Research/SelectScreen-Profiling-Service/SelectScreen-Kinase-Profiling-Service.html. The screening was performed with 1 μM compound, INT2-31, 10 μM ATP, and kinase substrates against ten recombinant kinases according to Z′-LYTET™ Kinase Assay. For PI3 kinase activity, 100 μM ATP, and kinase substrate were utilized with the Invitrogen Adapta® Universal Kinase Assay protocol. Tumor Growth in Nude Mice in vivo: Six week old athymic, female nude mice were purchased from Harlan Laboratory. The mice were maintained in the animal facility, and all experiments were performed in compliance with NIH animal-use guidelines and under an IACUC approved protocol. Melanoma cells were injected, 5×10^6 cells, subcutaneously. When the tumor size reached 100 mm^3, the INT2-31 was introduced by intraperitoneal injection at a dose of 15 mg/kg daily for 21 days. Tumor diameters were measured with calipers, and tumor volume in mm^3 was calculated using the formula [(width)^2×length]/2. At the end of experiment, tumor weight and volume were determined.
# [7] = tested on: insulin receptor, VEGFR-1, AKT-1, EGFR, VEGFR-2, c-MET, PDGFRa, p70S6K, Src and PI3Kinase; assay: Kinase profiler screening, other protein kinases; type: biochemical; conditions: 1 μM compound
# Method: as §3
# [8] = tested on: A375 subcutaneous tumor; assay: A375 melanoma xenograft in nude mice; type: in vivo; conditions: A375, 15 mg/kg daily intraperitoneal, 21 days, p<0.05
# Method: as §3, with “Melanoma cells were injected, 5×10^6 cells, subcutaneously. When the tumor size reached 100 mm^3, the INT2-31 was introduced by intraperitoneal injection at a dose of 15 mg/kg daily for 21 days.” left out
# For the melanoma study, the University of Florida IACUC approved the following protocol (IACUC Study #200801077). […] Tumor diameters were measured with calipers, and tumor volume in mm^3 was calculated using the formula [(width)^2×length]/2. At the end of experiment, tumor weight and volume were determined.
# Chain of IGF-1R (P08069 31-1367): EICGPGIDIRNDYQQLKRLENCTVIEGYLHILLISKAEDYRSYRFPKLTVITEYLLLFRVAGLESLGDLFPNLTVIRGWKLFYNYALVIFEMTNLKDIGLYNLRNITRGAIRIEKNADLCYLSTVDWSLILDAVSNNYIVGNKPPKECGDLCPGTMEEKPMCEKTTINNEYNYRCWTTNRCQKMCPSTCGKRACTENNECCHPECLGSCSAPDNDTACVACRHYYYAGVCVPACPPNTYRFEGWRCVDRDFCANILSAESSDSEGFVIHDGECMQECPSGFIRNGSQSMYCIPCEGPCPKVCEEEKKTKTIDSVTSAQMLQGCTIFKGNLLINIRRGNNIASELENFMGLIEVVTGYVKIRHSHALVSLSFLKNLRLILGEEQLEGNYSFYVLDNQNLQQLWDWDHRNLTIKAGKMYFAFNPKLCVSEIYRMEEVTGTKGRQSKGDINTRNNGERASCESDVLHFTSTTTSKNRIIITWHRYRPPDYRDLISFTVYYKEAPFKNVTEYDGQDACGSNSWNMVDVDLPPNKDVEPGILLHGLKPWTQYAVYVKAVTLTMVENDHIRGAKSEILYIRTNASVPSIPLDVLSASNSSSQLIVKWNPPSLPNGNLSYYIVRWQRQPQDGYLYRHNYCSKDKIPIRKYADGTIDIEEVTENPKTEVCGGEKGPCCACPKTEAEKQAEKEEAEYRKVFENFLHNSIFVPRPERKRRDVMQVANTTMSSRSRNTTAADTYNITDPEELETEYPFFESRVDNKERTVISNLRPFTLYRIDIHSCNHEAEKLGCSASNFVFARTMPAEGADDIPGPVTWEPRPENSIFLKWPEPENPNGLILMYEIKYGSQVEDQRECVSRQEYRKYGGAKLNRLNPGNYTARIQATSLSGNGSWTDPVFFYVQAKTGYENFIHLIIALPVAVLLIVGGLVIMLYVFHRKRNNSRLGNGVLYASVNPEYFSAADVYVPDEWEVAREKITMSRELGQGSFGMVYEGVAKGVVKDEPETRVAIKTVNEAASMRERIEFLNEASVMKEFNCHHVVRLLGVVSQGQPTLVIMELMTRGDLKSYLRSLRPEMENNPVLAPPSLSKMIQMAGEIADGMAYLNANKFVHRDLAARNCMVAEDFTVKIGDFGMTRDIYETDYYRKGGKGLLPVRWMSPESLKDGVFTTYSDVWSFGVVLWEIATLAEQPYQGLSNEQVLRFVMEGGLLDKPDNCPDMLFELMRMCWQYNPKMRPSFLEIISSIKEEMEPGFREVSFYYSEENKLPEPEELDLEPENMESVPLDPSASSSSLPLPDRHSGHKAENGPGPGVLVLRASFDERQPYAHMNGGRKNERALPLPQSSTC
smiles,measurement,setting,value
"CSc1ncnc2c1ccn2C1O[C@H](COP(=O)(O)O)[C@@H](O)[C@H]1O (stereo partly drawn) [INT2-31, 4-(Methylthio)-7-(5-O-phosphono-D-ribofuranosyl)-{7H-Pyrrolo[2,3-d]pyrimidine}]",IC50,[1],3.2 µM
same,IC50,[2],16.9 µM
same,IC50,[3],45.6 µM
same,IC50,[4],100 µM
same,IC50,[5],0.03 µM
same,kinase activity of IGF-1R,[6],did not inhibit
same,inhibition of any of the other protein kinases,[7],≤ 22%
same,subcutaneous tumor growth compared to PBS control,[8],significant decrease
